The values that follow come from patent US8258295B2, “Triazine derivatives, compositions containing such derivatives, and methods of treatment of cancer and autoimmune diseases using such derivatives” (Prometic Biosciences Inc., priority 2007, dated 2012).

Test [1] relates to experimental autoimmune encephalomyelitis (EAE). The experiment in a line: PLP-induced experimental autoimmune encephalomyelitis (EAE) in SJL mice. The class given is in vivo. The method, then:
The PLP-induced experimental autoimmune encephalomyelitis (EAE) mouse model serves as a model of multiple sclerosis. On day O, SJL mice were immunized with 75 μg of PLP (139-151) emulsified in Freund's complete adjuvant (200 μl emulsion per mouse s.c. divided among four sites) and with pertussis toxin (200 ng, i.p.). The i.p. injection of pertussis toxin was repeated on day 2. Compound V was administered orally once a day at 25 mg/kg and 50 mg/kg, starting at day 0 and until 30 days post immunization, six times a week. […] Clinical grading of symptoms was carried out according to the following scale: 0=no illness, 1=flaccid tail, 2=moderate paraparesis, 3=severe paraparesis, 4=moribound state, 5=death.

For test [2], the system named is PC-3 cells. The experiment in a line: In vitro PC-3 cell adhesion to extracellular matrix components. The test is classed as cell-based, human. The settings on record: different concentrations. The protocol: An in vitro cell adhesion assay was used to assess the effect of the compounds on cancer cell adhesion. Microtiter 96-well plates were coated for 1 hr at room temperature with […] of adhesive ligands previously diluted to 5 μg/ml for laminin, 10 μg/ml for MATRIGEL™ basement membrane matrix, or 10 μg/ml for collagen in PBS. The wells were blocked with a solution of 1% BSA in PBS (100 μl/well) for 1 hr at 37° C. Subconfluent cultures of PC-3 cells were incubated with a 5 μM solution of calcein-AM for 30 min at 37° C., and then free calcein-AM was washed out (30 min) by incubation of the PC-3 cells in media without calcein-AM. Calcein-AM-labeled cells were trypsinized, washed, and resuspended in adhesion buffer (RPMI-1640, 10% FBS supplemented with 1 mM of MgCl2). Labeled PC-3 cells were preincubated in absence or presence of compounds for 30 min and then a final volume of 100 μl of preincubated cells were allowed to attach at 37° C. in a humidified incubator for 15 min, 30 min, or 60 min at 37° C. Nonattached cells were removed by two washes with PBS and attached cells were lysed with 100 μl of a 1% Triton X-100 solution in PBS. Plates were read on a Tecan GENios Plus fluorescent reader with an excitation wavelength of 485 nm and an emission wavelength of 530 nm. The number of attached cells was calculated based upon standard curves. Nonspecific cell attachment (attachment to wells coated with BSA) was always less than 5%.

The test system of test [3] is PGE2 production. Nature of the test: LPS-induced PGE2 production in J774A.1 cells (ELISA). The test is classed as cell-based. The note with it: Mus musculus, J774.A1, 24 hr, FIG. 11. The protocol:
Effect of compounds on PGE2 production was measured by ELISA using J774A.1 cells stimulated by LPS. J774A.1 cells were cultured in the presence or absence of LPS and compound. Cells were cultured for 24 hr at 37° C. and thereafter the supernatants were collected for the determination of the concentration of PGE2 by ELISA as recommended by the manufacturer (GE Healthcare). Data was analyzed in Microsoft Excel software and the concentration of compound which inhibits 50% of PGE2 production (IC50) was calculated using Prism software.

Test [4] deals with xenograft human prostate PC-3 tumor. Nature of the test: Xenograft human prostate PC-3 tumor in nude mice. The class given is in vivo, mouse. The note with it: FIG. 10A; CD1 nu/nu mice; compound IV 5 mg/kg. The protocol:
PC-3 cells were grown in RPMI-1640 containing 10% fetal bovine serum. […] The animals were then serially monitored by manual palpation for evidence of tumor. […] Serial tumor volume was obtained by bi-dimensional diameter measurements with calipers, using the formula 0.4 (a×b^2) where “a” was the major tumor diameter and “b” the minor perpendicular diameter.
In general terms: A xenograft is tissue or cells of one species grown in another, often human tumour cells in immunodeficient mice.

The test system of test [5] is NZB×NZW mice. Nature of the test: Systemic lupus erythematosus model, NZB×NZW mice. The class given is in vivo. The note with it: IV once a week from week 10 to week 46; FIG. 12. The text has this: New Zealand mice of the F1 hybrid cross NZB×NZW develop most of the autoimmune abnormalities seen in human SLE and die from SLE-like immune complex (IC)-mediated glomerulonephritis. The mice develop high titers of anti-DNA (double-strand and single-strand) and nuclear extract (NE) antibodies, as well as SLE-related clinical manifestations including leukopenia, thrombocytopenia, proteinuria, and glomerulonephritis. These mice develop anti-DNA antibodies after the age of three months, with a peak of anti-DNA antibody response occurring at seven months. Subsequently, the serum concentration of anti-DNA antibodies declines, presumably as a consequence of progressive uremia. The first serological manifestations of the disease occurs at about 150 days (i.e., five months). Their survival is evaluated at approximately 250 days.
Intravenous administration of compound or vehicle was undertaken once a week from week 10 to week 46.

Test [6] has as its system DA-3 breast tumor. The experiment in a line: Primary DA-3 breast tumor in mice. The test is classed as in vivo. The settings on record: FIG. 4B; compound I IV 50 mg/kg, alone or with cyclophosphamide; up to day 35.

In the case of `NCCCCCNc1nc(NCCc2ccc(O)cc2)nc(Nc2ccc(F)cc2)n1` [Compound V], in test [1] (oral 50 mg/kg, vs vehicle), the “activity on clinical signs of EAE” value is given as “significant activity”. Also, the “appearance of clinical signs of EAE” value in test [1] (oral once a day, 25 mg/kg and 50 mg/kg, until 30 days, FIG. 23) is on record as “reduces in a dose dependent manner the appearance of signs of EAE”. The “PC-3 cell adhesion to laminin” value in test [2] (FIG. 1A) is listed as “inhibits PC-3 cells adhesion in a dose dependent fashion”. Besides, the “PC-3 cell adhesion to MATRIGEL basement membrane matrix” value in test [2] (FIG. 1B) is on record as “inhibits PC-3 cells adhesion in a dose dependent fashion”. The “PC-3 cell adhesion to collagen” value in test [2] (FIG. 1C) is “inhibits PC-3 cells adhesion in a dose dependent fashion”. In addition, in test [3], the concentration for half-maximal inhibition (IC50) (commonly the midpoint of a concentration-inhibition curve) is 2000 nM.
In the case of `NCCCCCNc1nc(NCCc2ccc(S(N)(=O)=O)cc2)nc(Nc2cccc(F)c2)n1` [Compound II], in test [4], the “effect on PC-3 tumor growth” value was “cytostatic (no growth) effect up to day 42”.
In the case of `NCCCCCNc1nc(NCCc2ccc(O)cc2)nc(Nc2cccc(F)c2)n1` [Compound I], in test [5], the “mortality of NZB×NZW mice” value was “reduces the mortality”. Moreover, the “effect on DA-3 tumor growth” value in test [6] is reported as “weak inhibitory effect”.
